Source: patent US6958141B2, “Rhenium and technetium complexes containing a hypoxia-localizing moiety” (Bracco International B.V., priority 1991, dated 2005)

Key:
[1] = Determination of reduction potential by cyclic voltammetry; format: physicochemical; settings: for Epc(V): cyclic voltammetry in dimethylformamide at Hg, vs. Ag/AgNO3; for Reduction process: cyclic voltammetry in dimethylformamide
Procedure: The reduction potentials of misonidazole, ^99TcO(PnAO), and ^99Tc-hypoxia-localizing tracers were determined by cyclic voltammetry (C.V.) in dimethylformamide. […] The reference electrode was Ag/AgNO3 with an acetonitrile filling solution saturated with LiCl. The counter electrode was a platinum wire. Voltamograms at mercury were determined at scan rates of 50, 100, 200, and 500 mV/s.
The solutions used in C.V. studies contained test sample at a concentration of 0.2-0.7 mM and tetrabutylammonium tetrafluoroborate (Bu4NBF4) or tetrabutylammonium hexafluorophosphate (Bu4NPF6) supporting electrolyte at a concentration of 0.1M. The solution was deoxygenated by bubbling solvent-saturated nitrogen or argon through the solution for 15 minutes. Variations in the reference potential were accounted for by determining the C.V. of a Ru(acac)3 standard on a daily basis.

[2] = test system: Calcium-tolerant ventricular myocytes; experiment: Isolated cardiac myocyte studies, retention of radioactivity; format: cell-based, male Sprague Dawley rats; settings: isolated myocytes; for Anoxia/normoxia ratio: % in Cell Pellet; for % in Cell Pellet, Anoxia / % in Cell Pellet, Normoxia: several Tc-99m complexes
Source text: Calcium-tolerant ventricular myocytes were isolated from hearts of male Sprague Dawley rats (200 g) according to the procedure of Wittenberg and Robinson (B. A. Wittenberg and T. F. Robinson, Cell Tissue Res., 216: 231, 1981) with modifications described previously (W. Rumsey, C. Schlosser, E. M. Nuutinen, M. Robiolio and D. F. Wilson, J. Biol. Chem., 265 (26): 15392, 1990). Cells were used immediately following morphological analysis (using a hemocytometer) of viability and were maintained at 37° C. during the experiments. The number of quiescent, rod shaped cells ranged from 70-90% within a total population of 5-9×10^6 cells.
The isolated myocytes were maintained in either a normoxic, hypoxic or anoxic state. Hypoxia was induced by providing an atmosphere of argon atop of the cells and sealing the flask during the incubation period. Glucose oxidase plus catalase (5/5 mg) was added to argon treated cells to provide anoxia. Cells were suspended (6.5-7.5×10^4 cells/ml) in isolation media and aliquots were added to incubation vials maintained at 37° C.
After incubation with a test compound, myocytes were deproteinated with 1% ice-cold perchloric acid and centrifuged at 12,000 rpm for 30 sec. The supernatent was separated from the pellet and each counted using a LKB 1282 gamma counter. Alternatively, myocytes were separated from the suspending media by passing the cells through 99% dibutyl phthalate by centrifugation at 12,000 rpm for 30 sec. The three phases were separated and counted as described above. Results for the Tc-99m complex of the compound in Example 1 are given below:
Values represent means ±S.E.M. for the number of experiments noted in the parentheses. The values are the percent of total radioactivity represented by each case. PCA pellet=perchloric acid-precipitated pellet which represents the activity associated with proteins/membranes. Cell pellet=whole cells passed through a layer of dibutyl phthalate (oil).
Several Tc-99m complexes were examined in isolated myocytes using the protocol described above. The percentage of activity retained in the cell pellet was determined under anoxic and normoxic states.

[3] = test system: hypoxic ischemic border zone; experiment: Rabbit focal myocardial ischemia model (LAD occlusion), double-label autoradiography; format: in vivo; settings: permanent LAD coronary artery ligation, intravenous tracer, heart sections
Procedure: A model of focal myocardial ischemia in the rabbit was developed, using permanent ligation of the left anterior descending (LAD) coronary artery. The model consisted of two studies. In the first, relative regional myocardial blood flow (MBF) and relative regional myocardial rate of glucose metabolism (MMRgl) were determined by autoradiography using a double-label study with the flow tracer ^99mTcCl(CDO)3MeB (R. K. Narra et al., J. Nucl. Med., 1989; 30:1830-1837) and ^14C-deoxy-glucose for MMRgl (L. Sokoloff et al., J. Neurochem., 1977, 28, 897-916). ^14C-deoxyglucose and the ^99mTc-hypoxia-localizing tracer were administered to a second group of rabbits with LAD coronary artery occlusion.
After the surgical preparation and 20 minutes of LAD occlusion, ^14C-deoxyglucose (130-150 μCi) was injected as an intravenous bolus, and timed arterial blood samples were obtained. Twenty-five minutes later, ^99mTcCl(CDO)3MeB (10-12 mCi) was administered intravenously. Five minutes later, the rabbits were sacrificed by intravenous injection of Nembutal and potassium chloride. The heart was excised, frozen in liquid Freon-22, and 20 μm coronal sections obtained with a Microtome. Autoradiographs were obtained on all sections. For the first exposure (˜14 hours duration) of Kodak XAR film, extra heavy duty aluminum foil was interposed between the tissue and film to block completely the radiation emanating from ^14C to obtain the MBF information derived from ^99mTcCl(CDO)3MeB alone. After three days (to allow for decay of ^99mTc); a second autoradiograph was obtained without foil. The second exposure lasted 6-8 days, and,provided an image of the regional distribution of ^14C-deoxyglucose.
In a separate experiment using the rabbit LAD occlusion model and the double-label autoradiography procedures described above, the performance of the ^99mTc complex of the ligand described in Example 1 was compared to that of ^14C-misonidazole.

CC(=NO)C(C)(C)NCCCNC(C)(C)C(Cn1ccnc1[N+](=O)[O-])=NO [Example 1, 3,3,9,9-Tetramethyl-1-(2-nitro-1H-imidazo-1-yl)-4,8-diazaundecane-2,10-dione dioxime]
Epc(V) ([1]; first or only reduction listed): −1.52 V | Reduction process ([1]; first or only reduction listed): reversible

CC(=NO)C(C)(C)NCCCNC(C)(C)C(Cn1cnc([N+](=O)[O-])c1)=NO [Example 2, 3,3,9,9-Tetramethyl-1-(4-nitro-1H-imidazo-1-yl)-4,8-diazaundecane-2,10-dione dioxime]
Epc(V) ([1]; first or only reduction listed): −1.81 V | Reduction process ([1]; first or only reduction listed): reversible

CC(=NO)C(C)(C)NCCCNC(C)(C)C(CCn1ccnc1[N+](=O)[O-])=NO [Example 3, 4,4,10,10-Tetramethyl-1-(2-nitro-1H-imidazo-1-yl)-5,9-diazadodecane-3,11-dione dioxime]
Epc(V) ([1]; first or only reduction listed): −1.54 V | Reduction process ([1]; first or only reduction listed): reversible

CC(=NO)C(C)(C)NCC(O)CNC(C)(C)C(Cn1ccnc1[N+](=O)[O-])=NO (stereo not drawn) [Example 4, 6-Hydroxy-3,3,9,9-tetramethyl-1-(2-nitro-1H-imidazo-1-yl)-4,8-diazaundecane-2,10-dione dioxime]
Epc(V) ([1]; first or only reduction listed): −1.51 V | Reduction process ([1]; first or only reduction listed): reversible

CC(=NO)C(C)(C)NCC(CNC(C)(C)C(C)=NO)NC(=O)Cn1ccnc1[N+](=O)[O-] (stereo not drawn) [Example 5, 3,3,9,9-Tetramethyl-6-((2-nitro-1H-imidazo-1-yl)acetamido)-4,8-diazaundecane-2,10-dione dioxime]
Epc(V) ([1]; first or only reduction listed): −1.52 V | Reduction process ([1]; first or only reduction listed): reversible

CC1=[N+](O)[99Tc-]23(=[O])[N](CCC[N]2C1(C)C)C(C)(C)C(Cn1cnc([N+](=O)[O-])c1)=[N+]3[O-] [Example 6a, [^99Tc]Oxo[[3,3,9,9-tetramethyl-1-(4-nitro-1H-imidazo-1-yl)-4,8-diazaundecane-2,10-dione dioximato]-(3-)-N,N′,N″,N′″]technetium(V)]
Epc(V) ([1]; first or only reduction listed): −1.81 V | Epc(V) ([1]; second reduction listed): −2.02 V | Reduction process ([1]; first or only reduction listed): reversible | Reduction process ([1]; second reduction listed): irreversible

CC1=[N+](O)[99Tc-]23(=[O])[N](CCC[N]2C1(C)C)C(C)(C)C(CCn1ccnc1[N+](=O)[O-])=[N+]3[O-] [Example 19, [^99Tc]Oxo[[4,4,10,10-tetramethyl-1-(2-nitro-1H-imidazo-1-yl)-5,9-diazadodecane-3,11-dione dioximato](3-)-N,N′,N″,N′″]technetium(V)]
Epc(V) ([1]; first or only reduction listed): −1.53 V | Epc(V) ([1]; second reduction listed): −2.07 V | Reduction process ([1]; first or only reduction listed): reversible | Reduction process ([1]; second reduction listed): irreversible

CC(=NO)C(C)(C)NCC(C)CNC(C)(C)C(Cn1ccnc1[N+](=O)[O-])=NO (stereo not drawn) [Example 23, 3,3,6,9,9-Pentamethyl-1-(2-nitro-1H-imidazol-1-yl)-4,8-diazaundecane-2,10-dione dioxime]
melting point: 167 to 168 °C

COC(=O)CCC(=NO)C(C)(C)NCCCNC(C)(C)C(Cn1ccnc1[N+](=O)[O-])=NO [Example 24, 12-Methoxycarbonyl-3,3,9,9-tetramethyl-1-(2-nitro-1H-imidazol-1-yl)-4,8-diazadodecane-2,10-dione dioxime]
melting point: 137 to 139 °C

CCOCC(=NO)C(C)(C)NCCCNC(C)(C)C(Cn1ccnc1[N+](=O)[O-])=NO [Example 25, 11-Ethoxy-3,3,9,9-tetramethyl-1-(2-nitro-1H-imidazol-1-yl)-4,8-diazaundecane-2,10-dione dioxime]
melting point: 122 to 123 °C

CC(=NO)C(C)(C)NCC(CNC(C)(C)C(C)=NO)CC(O)Cn1ccnc1[N+](=O)[O-] (stereo not drawn) [Example 26, 3,3,9,9-Tetramethyl-6-[2-hydroxy-3-(2-nitro-1H-imidazol-1-yl)propyl]-4,8-diazaundecane-2,10-dione dioxime]
melting point: 185 to 187 °C

CC(=NO)C(C)(C)NCCCNC(C)(C)C(Cn1cc(C)nc1[N+](=O)[O-])=NO [Example 27, 3,3,9,9-Tetramethyl-1-(4-methyl-2-nitro-1H-imidazol-1-yl)-4,8-diazaundecane-2,10-dione dioxime]
melting point: 140 to 141 °C

CC(=NO)C(C)(C)NCCCNC(C)(C)C(Cn1c(C)cnc1[N+](=O)[O-])=NO [Example 28, 3,3,9,9-Tetramethyl-1-(5-methyl-2-nitro-1H-imidazol-1-yl)-4,8-diazaundecane-2,10-dione dioxime]
melting point: 150 to 152 °C

CC(=NO)C(C)(C)NCC(F)(F)CNC(C)(C)C(CCn1ccnc1[N+](=O)[O-])=NO [Example 30, 6,6-Difluoro-3,3,9,9-tetramethyl-12-(2-nitro-1H-imidazol-1-yl)-4,8-diazadodecane-2,10-dione dioxime]
melting point: 90 to 92 °C

CC(=NO)C(C)(C)NCCCNC(C)(C)C(COCC(O)Cn1ccnc1[N+](=O)[O-])=NO (stereo not drawn) [Example 31, 3,3,9,9-Tetramethyl-1-[2-hydroxy-3-(2-nitro-1H-imidazol-1-yl)propoxy]-4,8-diazaundecane-2,10-dione dioxime]
melting point: 134 to 135 °C

CC(=NO)C(C)(C)NCC(O)CNC(C)(C)C(CCn1ccnc1[N+](=O)[O-])=NO (stereo not drawn) [Example 32, 6-Hydroxy-3,3,9,9-tetramethyl-12-(2-nitro-1H-imidazol-1-yl)-4,8-diazadodecane-2,10-dione dioxime]
melting point: 62 to 64 °C

Cc1ncc([N+](=O)[O-])n1CCO [Metronidazole, reference compound]
Epc(V) ([1]; first or only reduction listed): −1.62 V | Reduction process ([1]; first or only reduction listed): reversible

COCC(O)Cn1ccnc1[N+](=O)[O-] (stereo not drawn) [Misonidazole, reference compound]
Epc(V) ([1]; first or only reduction listed): −1.49 V | Reduction process ([1]; first or only reduction listed): reversible

CC(=NO)C(C)(C)NCC(O)CNC(C)(C)C(C)=NO (stereo not drawn) [^99mTc Complex of 6-hydroxy-PnAO, 6-hydroxy PnAO(6-hydroxy-3,3,9,9-tetramethyl-4,8-diazaundecane-2,10-dione dioxime), metal not drawn, reference compound]
Anoxia/normoxia ratio [2]: 1.3 | % in Cell Pellet, Anoxia [2]: 9.2 (n = 1) % | % in Cell Pellet, Normoxia [2]: 7.1 (n = 1) %

CC(=NO)C(C)(C)NCC(C)CNC(C)(C)C(C)=NO (stereo not drawn) [^99mTc Complex of 6-methyl-PnAO, ^99mTc-complexes of 6-methyl PnAO (3,3,6,9,9-pentamethyl-4,8-diazaundecane-2,10-dione dioxime), metal not drawn, reference compound]
regional myocardial distribution pattern (autoradiography) [3]: no differentiation of ischemic and non-ischemic regions | Anoxia/normoxia ratio [2]: 1.3 | % in Cell Pellet, Anoxia [2]: 22.7 (n = 1) % | % in Cell Pellet, Normoxia [2]: 17.4 (n = 1) %

^14C-misonidazole
regional myocardial distribution pattern (autoradiography) [3]: high uptake in the hypoxic border zone of the ischemic territory and low uptake in normoxic regions
